Data on one compound can be found in US20170202838A1, “IMMUNOMODULATOR” (TAIHO PHARMACEUTICAL CO., LTD., priority 2015, published 2017).

One assay concerns colon26. In words: Analysis of immunocytes in spleen cells in mouse model subcutaneously implanted with colon cancer cell line (Example 6). In kind it is in vivo. The conditions noted are these: Compound (I) 50 mg/kg and/or anti-PD-1 antibody 100 μg/mouse. The procedure: A cell suspension of the mouse colon cancer cell line (colon26) was prepared with the use of PBS(-) and 50% Matrigel, and the cell suspension was implanted into the syngeneic BALB/c mice via subcutaneous injection at 2×10^3 cells/mouse. The mice were divided into groups based on their body weights 1 day after implantation, and Compound (I) was administered thereto at 50 mg/kg and/or the anti-PD-1 antibody was administered thereto at 100 μg/mouse. A control group to which neither Compound (I) nor the anti-PD-1 antibody had been administered was also prepared. The spleen cells were sampled 21 days after implantation and analyzed via flow cytometry with the use of antibodies each reacting with a relevant immunocyte surface marker.

The subject of assay [1] is MC38. In words: Immune-system-associated gene expression in tumors via real-time PCR (Example 11). The assay is classed as in vivo, mouse. The conditions noted are these: final day of administration, relative to control. The procedure: (§1) A cell suspension of the mouse colon cancer cell line MC38 was prepared with the use of PBS(-) and 50% Matrigel, and the cell suspension was injected subcutaneously into mice at 1×10^6 cells/mouse. The mice were divided into groups when the average subcutaneous tumor volume reached approximately 50 mm^3, Compound (I) (50 mg/kg) or the anti-PD-1 antibody (50 μg/mouse) was administered thereto alone or Compound (I) (50 mg/kg) was administered in combination with the anti-PD-1 antibody (50 μg/mouse), and the tumor volume was measured with the elapse of time. The tumor volume was determined on the basis of the longer diameter and the shorter diameter of the tumor measured percutaneously in accordance with Equation A shown below.
FIGS. 14 to 16 show changes in the immune-system-associated gene expression levels in tumors of the groups on the final day of administration of Compound (I). The tumor samples were obtained from the groups on the final day of administration of Compound (I) to prepare cDNA samples. The prepared cDNA samples were subjected to gene expression analysis via real-time PCR with the use of various immune-system-associated gene probes, and the results thereof were plotted. β-Actin was used as a control. Each plot indicates a gene expression level relative to a value of one of the controls. In the group to which Compound (I) had been administered, CD3, CD4, CD8, NK1.1, IL-2, IFN-γ, Perforin, Granzyme B, and CD69 gene expression levels increased, compared with those in the group to which Compound (I) had not been administered.
Background: Real-time PCR tracks product formation cycle by cycle.

For another assay, the target named is EGFR tyrosine kinase (Homo sapiens, UniProt P00533). The conditions noted are these: known from WO 2013/125709; cited from earlier work.
Chain of EGFR tyrosine kinase (P00533 25-1210): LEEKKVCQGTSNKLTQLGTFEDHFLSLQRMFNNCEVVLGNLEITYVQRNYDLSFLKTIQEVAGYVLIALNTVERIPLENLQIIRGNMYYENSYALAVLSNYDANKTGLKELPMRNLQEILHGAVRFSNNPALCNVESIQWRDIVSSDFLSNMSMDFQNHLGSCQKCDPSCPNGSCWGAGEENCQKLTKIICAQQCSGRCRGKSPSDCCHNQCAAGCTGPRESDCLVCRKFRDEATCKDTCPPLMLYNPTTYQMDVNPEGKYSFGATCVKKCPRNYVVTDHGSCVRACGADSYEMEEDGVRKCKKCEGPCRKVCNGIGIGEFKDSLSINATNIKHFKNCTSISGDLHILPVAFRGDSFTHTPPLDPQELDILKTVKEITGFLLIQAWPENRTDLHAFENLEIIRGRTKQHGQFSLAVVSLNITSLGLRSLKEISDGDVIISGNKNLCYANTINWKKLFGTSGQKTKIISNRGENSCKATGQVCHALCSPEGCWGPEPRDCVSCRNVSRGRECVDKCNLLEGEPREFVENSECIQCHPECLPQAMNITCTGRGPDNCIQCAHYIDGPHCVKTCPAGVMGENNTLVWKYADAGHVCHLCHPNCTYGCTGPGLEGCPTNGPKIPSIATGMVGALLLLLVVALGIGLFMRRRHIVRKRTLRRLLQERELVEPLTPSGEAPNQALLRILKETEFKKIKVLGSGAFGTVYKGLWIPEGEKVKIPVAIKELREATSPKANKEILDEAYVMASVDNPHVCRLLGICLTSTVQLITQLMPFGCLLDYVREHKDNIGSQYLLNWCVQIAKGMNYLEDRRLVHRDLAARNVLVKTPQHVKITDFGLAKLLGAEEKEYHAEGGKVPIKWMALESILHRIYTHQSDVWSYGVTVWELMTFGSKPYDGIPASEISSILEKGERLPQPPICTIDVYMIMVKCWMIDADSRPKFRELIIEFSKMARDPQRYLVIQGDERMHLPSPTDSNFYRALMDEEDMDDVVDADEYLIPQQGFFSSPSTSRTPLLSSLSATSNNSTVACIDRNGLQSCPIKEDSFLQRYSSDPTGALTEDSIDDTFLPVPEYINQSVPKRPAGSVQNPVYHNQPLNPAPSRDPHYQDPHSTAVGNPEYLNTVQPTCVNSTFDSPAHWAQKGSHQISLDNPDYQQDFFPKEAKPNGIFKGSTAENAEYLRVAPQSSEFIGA
The subject of assay [2] is MC38. Put plainly: Tumor volume of subcutaneous mouse colon cancer cell line, in vivo model (Example 9). The settings on record: Compound (I) 50 mg/kg, compared with control group (FIG. 11). As to the method:
as §1, with “was administered at 50 mg/kg” for “(50 mg/kg)”, “antibody” for “antibody (50 μg/mouse)”, “at 100 μg/mouse,” for “thereto alone or Compound (I) (50 mg/kg) was administered in combination with the anti-PD-1 antibody (50 μg/mouse),”
Tumor volume (mm^3)=longer diameter (mm)×shorter diameter (mm)^2/2 (Equation A)

Assay [3] concerns human peripheral blood mononuclear cells. In words: Induction of cytokine production in human peripheral blood mononuclear cells, Bio-Plex Pro cytokine assay (Example 7). The conditions noted are these: 2 days culture, no stimulant (FIG. 9). The assay is classed as cell-based. As to the method:
Human peripheral blood mononuclear cells were introduced into a human complete medium (i.e., RPMI-1640 supplemented with 10% heat-inactivated FBS, 100 U/ml penicillin, and 100 μg/ml streptomycin) to prepare a cell suspension (1×10^5 cells/ml). Compound (I), the EGFR tyrosine kinase inhibitor (i.e., AZD9291 or Erlotinib), or a cytokine-inducing positive control (i.e., Imiquimod) was added to the cell suspension. A control group to which the EGFR tyrosine kinase inhibitor and others were not added was also prepared (i.e., the non-treatment group). The culture solution was cultured in an incubator at 37° C. in the presence of 5% CO2 for 2 days. The culture supernatant was recovered, and various types of cytokines were inspected with the use of the Bio-Plex Pro human cytokine assay kit.

In a further assay the test system is K1735M2. Put plainly: Tumor volume of subcutaneous mouse melanoma cell line, potentiation of anti-PD-1 or anti-PD-L1 antibody, in vivo model (Example 10). The settings on record: Compound (I) 50 mg/kg, antibody 100 μg/mouse, alone or in combination (FIG. 12). As to the method: A cell suspension of the mouse melanoma cell line K1735M2 was prepared with the use of PBS(-) and 50% Matrigel, and the cell suspension was injected subcutaneously into mice at 1×10^6 cells/mouse. The mice were divided into groups based on their body weights 1 day after implantation, Compound (I) (50 mg/kg) or the anti-PD-1 antibody or anti-PD-L1 antibody (100 μg/mouse) was administered thereto alone or either the anti-PD-1 antibody or the anti-PD-L1 antibody was administered in combination with Compound (I), and the tumor volume was measured with the elapse of time. The tumor volume was determined on the basis of the longer diameter and the shorter diameter of the tumor measured percutaneously in accordance with Equation A shown above.

The next assay deals with B16F10. Put plainly: In vitro growth of mouse melanoma cell line B16F10, CellTiter-Glo2.0 (Reference Example 1). The assay is classed as cell-based. The settings on record: B16F10, 3 days culture. The procedure:
The mouse melanoma cell lines B16F10 and K1735M2 and the mouse colon cancer cell line MC38 were seeded in a 96-well plate at 3×10^3 cells/well. Compound (I) or the EGFR tyrosine kinase inhibitor (i.e., Erlotinib, Afatinib, AZD9291, or Co1686 (Rociletinib)) that had been diluted to the given concentration was added 24 hours later. Thereafter, culture was conducted for 3 days, and the number of cells was determined using CellTiter-Glo2.0 (Promega, G9243).
A general note: In ATP-based viability assays light output follows the ATP content of the culture.

[4] abbreviates: 21 days after implantation (FIG. 7).
The mark [5] stands for this setting: 21 days after implantation, compared with control group (FIG. 8).

As for `C=CC(=O)N[C@H]1CCc2c(-c3cnc4ccccc4c3)c3c(N)ncnc3n2C1` [Compound (I), (S)—N-(4-amino-5-(quinolin-3-yl)-6,7,8,9-tetrahydropyrimido[5,4-b]indolizin-8-yl)acrylamide], in the assay on colon26 (setting [4]), the “relative number of CD4-positive and CD69-positive cells in spleen cells” value is on record as “greater than those in the control group”; the “relative number of CD4-positive, CD44-positive, and CD62L-negative cells in spleen cells” value is recorded as “greater than those in the control group”. Also, in the assay on colon26 (setting [5]), the “CD44 expression level in CD4-positive cells (MFI)” value is on record as “increased” and the “CD62L expression level in CD4-positive cells (MFI)” value is on record as “decreased”. In the assay with MC38 [1] (β-Actin control (FIG. 14)), the “CD3 gene expression level in tumors” value was “increased”, the “CD4 gene expression level in tumors” value is given as “increased” and the “CD8 gene expression level in tumors” value was “increased”. Also, in the assay on MC38 [1] (β-Actin control (FIG. 15)), the “IFN-γ gene expression level in tumors” value is listed as “increased”, the “IL-2 gene expression level in tumors” value is listed as “increased” and the “NK1.1 gene expression level in tumors” value was “increased”. Moreover, in the assay with MC38 [1] (β-Actin control (FIG. 16)), the “CD69 gene expression level in tumors” value was “increased”, the “Granzyme B gene expression level in tumors” value is on record as “increased” and the “Perforin gene expression level in tumors” value was “increased”. The “inhibition of EGFR tyrosine kinase” value at EGFR tyrosine kinase was “inhibit EGFR tyrosine kinase with high selectivity”. The “extent of tumor growth inhibition (tumor volume)” value in the assay with MC38 [2] is on record as “greater”. Further, the “cytokine concentrations relative to the non-treatment group” value in assay [3] is given as “induced the production of various types of cytokines”. Besides, the “extent of tumor growth inhibition (tumor volume)” value in the assay with K1735M2 is “not sufficient”. For the same compound, in the assay with B16F10, the “suppression of cell growth (number of cells)” value is given as “did not suppress the growth of any cells”.
